“Also recorded” adds a separate entry of the source. Where no end group is shown, it is not given here.
Tests used:
[1] = target: T1, Porcine cholesterol esterase (Sus scrofa, UniProt A0A286ZKB1); assay: CE inhibitory activity assay (spectrophotometry); assay type: biochemical; conditions: for comparative inhibitory activity on CE (in words): authors' ranking, for KQ7 partly integrating molecular dynamics; for concentration dependence of CE inhibition rate: 0.2–1.0 mg/mL; for CE inhibition rate vs control group: all concentrations, p < 0.05
T1 sequence (A0A286ZKB1 1-682): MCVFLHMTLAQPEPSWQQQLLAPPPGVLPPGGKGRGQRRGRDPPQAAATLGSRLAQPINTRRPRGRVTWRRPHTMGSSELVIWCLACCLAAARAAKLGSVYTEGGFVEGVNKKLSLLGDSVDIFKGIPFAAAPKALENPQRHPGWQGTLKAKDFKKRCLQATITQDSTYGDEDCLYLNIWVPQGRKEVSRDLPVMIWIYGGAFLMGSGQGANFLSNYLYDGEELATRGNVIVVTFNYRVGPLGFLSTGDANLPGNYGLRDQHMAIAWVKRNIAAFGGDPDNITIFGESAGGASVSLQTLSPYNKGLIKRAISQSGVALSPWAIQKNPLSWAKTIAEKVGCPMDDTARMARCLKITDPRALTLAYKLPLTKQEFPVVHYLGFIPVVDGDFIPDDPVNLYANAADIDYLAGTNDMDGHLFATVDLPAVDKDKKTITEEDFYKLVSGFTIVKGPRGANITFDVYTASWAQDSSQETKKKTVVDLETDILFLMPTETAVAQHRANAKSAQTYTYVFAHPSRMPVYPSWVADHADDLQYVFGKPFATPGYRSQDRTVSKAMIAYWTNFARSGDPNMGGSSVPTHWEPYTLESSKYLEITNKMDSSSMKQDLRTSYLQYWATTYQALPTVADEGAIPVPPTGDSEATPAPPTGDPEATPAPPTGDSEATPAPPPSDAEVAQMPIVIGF
Experimental: (§1) Porcine cholesterol esterase and the ELISA kit were provided by Jiangsu JINGMEI Biotechnology Co., Ltd. (Yancheng, China).
(§2) In the formula, ODs: is the absorbance value of the sample group; ODsb: is the absorbance value of the sample blank group; ODc: is the absorbance value of the control group; and ODb: is the absorbance value of the blank group.
(§3) Each experimental sample was tested in triplicate, and the data were processed using IBM SPSS Statistics 26 software. Figures were generated using Origin 2018 and GraphPad Prism 8.0.2 software.

[2] = target: T1, Porcine cholesterol esterase; assay: CE inhibitory activity after simulated gastrointestinal digestion (pepsin, trypsin); assay type: biochemical; conditions: for CE inhibition after digestion (in words): after simulated gastrointestinal digestion; for change of CE inhibition on digestion (in words): simulated gastrointestinal digestion, KQ7, QP13, VN10 at 60 min, RK7 within 120 min
From the text: as §1, §2
We dissolved the synthesized peptide aqueous solution in pepsin (enzyme: substrate 1:50 w/w) and adjusted the pH to 2 using 1 mol/L HCl. Then, we hydrolyzed this at 37 °C for 90 min, then adjusted the pH to 7.5 with 1 mol/L NaOH solution and added trypsin (enzyme: substrate 1:50 w/w). Next, we hydrolyzed this at 37 °C for 180 min in a constant temperature water bath. Subsequently, we inactivated this by boiling it in a 95 °C water bath for 10 min. Finally, we took samples every 30 min and stored each sample at −20 °C for later analysis.
The determination of CE activity refers to Section 2.3.5.
as §3

[3] = peptide isolated from soybean glycinin; ref [26]; cited from earlier work
From the text: These carbon–hydrogen bonds may have stabilized the QP13–CE complex to some extent, complementing the hydrogen bonds. It formed π–Alkyl bonds with Ile426, Phe119, Ala117, Leu69, and Leu124 through hydrophobic interactions. QP13 also interacted with Asp434, Lys445, Asn118, Met424, Ile426, Tyr75, Thr68, Tyr427, Tyr123, Leu69, Gln440, Asn112, Phe119, and Arg63 through van der Waals f ...

Row | Molecule | comparative inhibitory activity on CE (in words) [1] | IC50 ([1]; from inhibition curve, spectrophotometry, triplicate) | concentration dependence of CE inhibition rate [1] | CE inhibition rate vs control group [1] | CE inhibition after digestion (in words) [2] | change of CE inhibition on digestion (in words) [2] | cholesterol effect [3]
1 | CC(C)c1c(C(=O)Nc2ccccc2)c(-c2ccccc2)c(-c2ccc(F)cc2)n1CC[C@@H](O)C[C@@H](O)CC(=O)O [Atorvastatin, reference compound] | strongest inhibitory effect on CE | 854 µM |  |  |  |  | 
2 | KVLPVPQ [KQ7, Lys-Val-Leu-Pro-Val-Pro-Gln] | highest inhibitory activity on CE; also recorded: higher inhibitory activity against CE compared to RK7; also recorded: highest inhibitory activity against CE |  | increased with the increase of peptide mass concentration | significantly higher than those of the control group at all concentrations (p < 0.05) | effective in inhibiting CE after simulated gastrointestinal digestion | significant increase in the inhibitory activity; also recorded: significant increase in CE inhibition activity at 60 min during digestion (p < 0.05); also recorded: significantly enhanced after simulated gastrointestinal digestion | 
3 | Leu–Pro–Tyr–Pro |  |  |  |  |  |  | demonstrated low cholesterol effects
4 | QEPVLGPVRGPFP [QP13] |  |  | increased with the increase of peptide mass concentration | significantly higher than those of the control group at all concentrations (p < 0.05) | effective in inhibiting CE after simulated gastrointestinal digestion | significant increases in inhibition activity (p < 0.05) | 
5 | RPKHPIK [RK7, Arg-Pro-Lys-His-Pro-Ile-Lys] |  |  | increased with the increase of peptide mass concentration | significantly higher than those of the control group at all concentrations (p < 0.05) | effective in inhibiting CE after simulated gastrointestinal digestion | significant increase in the inhibitory activity; also recorded: significant changes observed (p < 0.05); also recorded: significantly enhanced after simulated gastrointestinal digestion | 
6 | VYPFPGPIPN [VN10] |  |  | increased with the increase of peptide mass concentration | significantly higher than those of the control group at all concentrations (p < 0.05) | effective in inhibiting CE after simulated gastrointestinal digestion | significant increases in inhibition activity (p < 0.05) | 
